The assay has as its system 1a replicon. The experiment in a line: HCV replicon assay with a 1a replicon. The class given is cell-based. Conditions: Hepatitis C virus. The source says:
To perform the HCV FRET screening assay, 96-well cell culture plates were used, The FRET peptide (Anaspec, Inc.) (Taliani et al., Anal. Biochem., 240:60-67 (1996)) contains a fluorescence donor, EDANS, near one end of the peptide and an acceptor, DABCYL, near the other end. The fluorescence of the peptide is quenched by […] resonance energy transfer (RET) between the donor and the acceptor, but as the NS3 protease cleaves the peptide the products are released from RET quenching and the fluorescence of the donor becomes apparent. The assay reagent was made as follows: 5× cell Luciferase cell culture lysis reagent from Promega (#E153A) diluted to 1× with dH2O, NaCl added to 150 mM final, the FRET peptide diluted to 20 μM final from a 2 mM stock.
To prepare plates, HCV replicon cells, with or without a Renilla luciferase reporter gene, were trypsinized and placed into each well of a 96-well plate with titrated test compounds added in columns 3 through 12; columns 1 and 2 contained a control compound (HCV protease inhibitor), and the bottom row contained cells without compound. The plates were then placed in a CO2 incubator at 37° C.
Subsequent to addition of the test compounds described above (FRET Assay Preparation), at various times the plate was removed and Alamar blue solution (Trek Diagnostics, #00-100) was added per well as a measure of cellular toxicity. After reading in a CYTOFLUOR® 4000 instrument (PE Biosystems), plates were rinsed with PBS and then used for FRET assay by the addition of 30 ul of the FRET peptide assay reagent described above (FRET Assay Preparation) per well. The plate was then placed into the CYTOFLUOR® 4000 instrument which had been set to 340 excite/490 emission, automatic mode for 20 cycles and the plate read in a kinetic mode. Typically, the signal to noise using an endpoint analysis after the reads was at least three-fold. Alternatively, after Alamar blue reading, plates were rinsed with PBS, 50 ul of DMEM (high glucose) without phenol red was added and plates were then used for luciferase assay using the Promega DUAL-GLO® Luciferase Assay System.
Compound analysis was determined by quantification of the relative HCV replicon inhibition and the relative cytotoxicity values. To calculate cytoxicity values, the average Alamar Blue fluorescence signals from the control wells were set as 100% non-toxic. The individual signals in each of the compound test wells were then divided by the average control signal and multiplied by 100% to determine […]. To calculate the HCV replicon inhibition values, an average background value was obtained from the two wells containing the highest amount of HCV protease inhibitor at the end of the assay period. These numbers were similar to those obtained from naïve Huh-7 cells. […]
On the technique in general: Replicon systems follow genome replication, usually without infectious particles.

Setting [1] is: determined similarly but with a 1a replicon, class symbol, read-out: EC50.

SMILES strings stand for the structures. pEC50: −log10 of the molar value. Like-named read-outs stand apart in the source and are kept apart here.

The record followed here is patent US8133884B2, “Compounds for the treatment of hepatitis C” (priority 2008, dated 2012).

The pEC50 is −log10 of the EC50, conventionally taken in molar units. As to `COc1ccc2c(c1)C=C(c1c(C(=O)N3C[C@@H](C)O[C@@H](C)C3)c(C(C)C)nn1C1CC1)Cn1c-2c(C2CCCCC2)c2ccc(C(=O)NS(=O)(=O)C(C)C)cc21`, the pEC50 under setting [1] is 6.30 to 8.77.
Still for that read-out and setting: next, `COc1ccc2c(c1)C=C(c1c(C(=O)N3C[C@@H](C)N(C)[C@@H](C)C3)c(C(C)C)nn1C1CC1)Cn1c-2c(C2CCCCC2)c2ccc(C(=O)NS(=O)(=O)C(C)C)cc21`: 6.30 to 8.77.
Consider `COc1ccc2c(c1)C=C(c1c(C(=O)N3C4CCC3CN(C)C4)c(C(C)C)nn1C1CC1)Cn1c-2c(C2CCCCC2)c2ccc(C(=O)NS(=O)(=O)C(C)C)cc21`, for which the negative logarithm of the EC50 (pEC50) is 6.30 to 8.77.
The same measure, in the same setting: next, `COc1ccc2c(c1)C=C(c1c(C(=O)N3C4CCC3COC4)c(C(C)C)nn1C1CC1)Cn1c-2c(C2CCCCC2)c2ccc(C(=O)NS(=O)(=O)C(C)C)cc21`: 6.30 to 8.77.
